# Test results published in ChEMBL document CHEMBL5365394, “Design, synthesis and biological evaluation of novel spiro-quinazolinone derivatives as chitin synthase inhibitors and antifungal agents” (Eur J Med Chem, 2023).
# Tested on: Aspergillus flavus
# Assay: Synergistic antifungal activity against Aspergillus flavus ATCC 16870 assessed as polyoxin B MIC incubated for 24 hrs by checkerboard broth microdilution method
# Type: functional
# Settings: not given
row,Structure (SMILES),MIC
1,Cc1ccc([N+](=O)[O-])cc1NC(=O)/C=C/C(=O)Nc1ccc2c(c1)C(=O)NC1(CCSC1)N2 (stereo not given),2 µg/mL

# Tested on: Aspergillus flavus
# Assay: Antifungal activity against Aspergillus flavus ATCC 16870 assessed as inhibition of cell wall synthesis incubated for 24 hrs in absence of sorbitol
# Type: functional
# Settings: not given
row,Structure (SMILES),MIC
1,Cc1ccc([N+](=O)[O-])cc1NC(=O)/C=C/C(=O)Nc1ccc2c(c1)C(=O)NC1(CCSC1)N2 (stereo not given),16 µg/mL

# Tested on: Candida tropicalis
# Assay: Inhibition of Candida tropicalis ATCC 750 chitin synthase using […] as substrate at 300 ug/ml incubated for 1 hr by absorbance based assay relative to control
# Settings: dose 300.0 µg/ml
row,Structure (SMILES),inhibition
1,Cc1ccc([N+](=O)[O-])cc1NC(=O)/C=C/C(=O)Nc1ccc2c(c1)C(=O)NC1(CCSC1)N2 (stereo not given),77.4%

# Tested on: Aspergillus fumigatus
# Assay: Additive antifungal activity against Aspergillus fumigatus GIMCC 3.19 assessed as fractional inhibitory concentration index incubated for 24 hrs in presence of polyoxin B by checkerboard broth microdilution method
# Type: functional
# Settings: not given
row,Structure (SMILES),fractional inhibitory concentration index (FICI)
1,Cc1ccc([N+](=O)[O-])cc1NC(=O)/C=C/C(=O)Nc1ccc2c(c1)C(=O)NC1(CCSC1)N2 (stereo not given),1.125

# Tested on: Candida albicans
# Assay: Additive antifungal activity against Candida albicans ATCC 76615 assessed as fractional inhibitory concentration index incubated for 24 hrs in presence of fluconazole by checkerboard broth microdilution method
# Type: functional
# Settings: not given
row,Structure (SMILES),fractional inhibitory concentration index (FICI)
1,Cc1ccc([N+](=O)[O-])cc1NC(=O)/C=C/C(=O)Nc1ccc2c(c1)C(=O)NC1(CCSC1)N2 (stereo not given),1.5

# Tested on: Candida albicans
# Assay: Antifungal activity against Fluconazole-resistant Candida albicans ATCC 76615R assessed as fungal growth inhibition
# Type: functional
# Settings: not given
row,Structure (SMILES),MIC
1,Cc1ccc([N+](=O)[O-])cc1NC(=O)/C=C/C(=O)Nc1ccc2c(c1)C(=O)NC1(CCSC1)N2 (stereo not given),16 µg/mL

# Tested on: Aspergillus fumigatus
# Assay: Antifungal activity against Fluconazole-resistant Aspergillus fumigatus GIMCC 3.19R assessed as fungal growth inhibition
# Type: functional
# Settings: not given
row,Structure (SMILES),MIC
1,Cc1ccc([N+](=O)[O-])cc1NC(=O)/C=C/C(=O)Nc1ccc2c(c1)C(=O)NC1(CCSC1)N2 (stereo not given),16 µg/mL

# Tested on: Aspergillus flavus
# Assay: Additive antifungal activity against Aspergillus flavus ATCC 16870 assessed as fractional inhibitory concentration index incubated for 24 hrs in presence of fluconazole by checkerboard broth microdilution method
# Type: functional
# Settings: not given
row,Structure (SMILES),fractional inhibitory concentration index (FICI)
1,Cc1ccc([N+](=O)[O-])cc1NC(=O)/C=C/C(=O)Nc1ccc2c(c1)C(=O)NC1(CCSC1)N2 (stereo not given),1.25

# Tested on: Candida albicans
# Assay: Synergistic antifungal activity against Candida albicans ATCC 76615 assessed as fluconazole MIC incubated for 24 hrs in by checkerboard broth microdilution method
# Type: functional
# Settings: not given
row,Structure (SMILES),MIC
1,Cc1ccc([N+](=O)[O-])cc1NC(=O)/C=C/C(=O)Nc1ccc2c(c1)C(=O)NC1(CCSC1)N2 (stereo not given),2 µg/mL

# Tested on: Aspergillus flavus
# Assay: Antifungal activity against Aspergillus flavus ATCC 16870 assessed as inhibition of cell wall synthesis incubated for 24 hrs in presence of sorbitol
# Type: functional
# Settings: not given
row,Structure (SMILES),MIC
1,Cc1ccc([N+](=O)[O-])cc1NC(=O)/C=C/C(=O)Nc1ccc2c(c1)C(=O)NC1(CCSC1)N2 (stereo not given),256 µg/mL

# Tested on: Aspergillus flavus
# Assay: Antifungal activity against Aspergillus flavus ATCC 16870 assessed as fungal growth inhibition incubated for 24 hrs by two-fold serial dilution method
# Type: functional
# Settings: not given
row,Structure (SMILES),MIC
1,Cc1ccc([N+](=O)[O-])cc1NC(=O)/C=C/C(=O)Nc1ccc2c(c1)C(=O)NC1(CCSC1)N2 (stereo not given),16 µg/mL

# Tested on: Aspergillus fumigatus
# Assay: Synergistic antifungal activity against Aspergillus fumigatus GIMCC 3.19 assessed as fluconazole MIC incubated for 24 hrs in by checkerboard broth microdilution method
# Type: functional
# Settings: not given
row,Structure (SMILES),MIC
1,Cc1ccc([N+](=O)[O-])cc1NC(=O)/C=C/C(=O)Nc1ccc2c(c1)C(=O)NC1(CCSC1)N2 (stereo not given),1 µg/mL

# Tested on: Cryptococcus neoformans
# Assay: Antifungal activity against Cryptococcus neoformans ATCC 32719 assessed as fungal growth inhibition incubated for 24 hrs by two-fold serial dilution method
# Type: functional
# Settings: not given
row,Structure (SMILES),MIC
1,Cc1ccc([N+](=O)[O-])cc1NC(=O)/C=C/C(=O)Nc1ccc2c(c1)C(=O)NC1(CCSC1)N2 (stereo not given),8 µg/mL

# Tested on: Candida albicans
# Assay: Synergistic antifungal activity against Candida albicans ATCC 76615 assessed as polyoxin B MIC incubated for 24 hrs by checkerboard broth microdilution method
# Type: functional
# Settings: not given
row,Structure (SMILES),MIC
1,Cc1ccc([N+](=O)[O-])cc1NC(=O)/C=C/C(=O)Nc1ccc2c(c1)C(=O)NC1(CCSC1)N2 (stereo not given),2 µg/mL

# Tested on: Aspergillus fumigatus
# Assay: Antifungal activity against Aspergillus fumigatus GIMCC 3.19 assessed as inhibition of cell wall synthesis incubated for 24 hrs in presence of sorbitol
# Type: functional
# Settings: not given
row,Structure (SMILES),MIC
1,Cc1ccc([N+](=O)[O-])cc1NC(=O)/C=C/C(=O)Nc1ccc2c(c1)C(=O)NC1(CCSC1)N2 (stereo not given),128 µg/mL

# Tested on: not listed separately
# Assay: Inhibition of Candida tropicalis ATCC 750 chitin synthase using UDP-GlcNAc as substrate incubated for 1 hr by absorbance based assay
# Settings: not given
row,Structure (SMILES),IC50
1,Cc1ccc([N+](=O)[O-])cc1NC(=O)/C=C/C(=O)Nc1ccc2c(c1)C(=O)NC1(CCSC1)N2 (stereo not given),123 µM

# Tested on: Aspergillus flavus
# Assay: Antifungal activity against Fluconazole-resistant Aspergillus flavus ATCC 16870R assessed as fungal growth inhibition
# Type: functional
# Settings: not given
row,Structure (SMILES),MIC
1,Cc1ccc([N+](=O)[O-])cc1NC(=O)/C=C/C(=O)Nc1ccc2c(c1)C(=O)NC1(CCSC1)N2 (stereo not given),32 µg/mL

# Tested on: Cryptococcus neoformans
# Assay: Synergistic antifungal activity against Cryptococcus neoformans ATCC 32719 assessed as polyoxin B MIC incubated for 24 hrs in by checkerboard broth microdilution method
# Type: functional
# Settings: not given
row,Structure (SMILES),MIC
1,Cc1ccc([N+](=O)[O-])cc1NC(=O)/C=C/C(=O)Nc1ccc2c(c1)C(=O)NC1(CCSC1)N2 (stereo not given),16 µg/mL

# Tested on: Cryptococcus neoformans
# Assay: Synergistic antifungal activity against Cryptococcus neoformans ATCC 32719 assessed as fluconazole MIC incubated for 24 hrs in by checkerboard broth microdilution method
# Type: functional
# Settings: not given
row,Structure (SMILES),MIC
1,Cc1ccc([N+](=O)[O-])cc1NC(=O)/C=C/C(=O)Nc1ccc2c(c1)C(=O)NC1(CCSC1)N2 (stereo not given),2 µg/mL

# Tested on: Candida albicans
# Assay: Synergistic antifungal activity against Candida albicans ATCC 76615 assessed as fractional inhibitory concentration index incubated for 24 hrs in presence of polyoxin B by checkerboard broth microdilution method
# Type: functional
# Settings: not given
row,Structure (SMILES),fractional inhibitory concentration index (FICI)
1,Cc1ccc([N+](=O)[O-])cc1NC(=O)/C=C/C(=O)Nc1ccc2c(c1)C(=O)NC1(CCSC1)N2 (stereo not given),0.5

# Tested on: Aspergillus flavus
# Assay: Synergistic antifungal activity against Aspergillus flavus ATCC 16870 assessed as fluconazole MIC incubated for 24 hrs in by checkerboard broth microdilution method
# Type: functional
# Settings: not given
row,Structure (SMILES),MIC
1,Cc1ccc([N+](=O)[O-])cc1NC(=O)/C=C/C(=O)Nc1ccc2c(c1)C(=O)NC1(CCSC1)N2 (stereo not given),1 µg/mL

# Tested on: Aspergillus fumigatus
# Assay: Antifungal activity against Aspergillus fumigatus GIMCC 3.19 assessed as fungal growth inhibition incubated for 24 hrs by two-fold serial dilution method
# Type: functional
# Settings: not given
row,Structure (SMILES),MIC
1,Cc1ccc([N+](=O)[O-])cc1NC(=O)/C=C/C(=O)Nc1ccc2c(c1)C(=O)NC1(CCSC1)N2 (stereo not given),16 µg/mL

# Tested on: Cryptococcus neoformans
# Assay: Additive antifungal activity against Cryptococcus neoformans ATCC 32719 assessed as fractional inhibitory concentration index incubated for 24 hrs in presence of polyoxin B by checkerboard broth microdilution method
# Type: functional
# Settings: not given
row,Structure (SMILES),fractional inhibitory concentration index (FICI)
1,Cc1ccc([N+](=O)[O-])cc1NC(=O)/C=C/C(=O)Nc1ccc2c(c1)C(=O)NC1(CCSC1)N2 (stereo not given),1.5

# Tested on: Aspergillus flavus
# Assay: Additive antifungal activity against Aspergillus flavus ATCC 16870 assessed as fractional inhibitory concentration index incubated for 24 hrs in presence of polyoxin B by checkerboard broth microdilution method
# Type: functional
# Settings: not given
row,Structure (SMILES),fractional inhibitory concentration index (FICI)
1,Cc1ccc([N+](=O)[O-])cc1NC(=O)/C=C/C(=O)Nc1ccc2c(c1)C(=O)NC1(CCSC1)N2 (stereo not given),1.125

# Tested on: Candida albicans
# Assay: Antifungal activity against Candida albicans ATCC 76615 assessed as fungal growth inhibition incubated for 24 hrs by two-fold serial dilution method
# Type: functional
# Settings: not given
row,Structure (SMILES),MIC
1,Cc1ccc([N+](=O)[O-])cc1NC(=O)/C=C/C(=O)Nc1ccc2c(c1)C(=O)NC1(CCSC1)N2 (stereo not given),2 µg/mL

# Tested on: Cryptococcus neoformans
# Assay: Additive antifungal activity against Cryptococcus neoformans ATCC 32719 assessed as fractional inhibitory concentration index incubated for 24 hrs in presence of fluconazole by checkerboard broth microdilution method
# Type: functional
# Settings: not given
row,Structure (SMILES),fractional inhibitory concentration index (FICI)
1,Cc1ccc([N+](=O)[O-])cc1NC(=O)/C=C/C(=O)Nc1ccc2c(c1)C(=O)NC1(CCSC1)N2 (stereo not given),1.5

# Tested on: Aspergillus fumigatus
# Assay: Antifungal activity against Aspergillus fumigatus GIMCC 3.19 assessed as inhibition of cell wall synthesis incubated for 24 hrs in absence of sorbitol
# Type: functional
# Settings: not given
row,Structure (SMILES),MIC
1,Cc1ccc([N+](=O)[O-])cc1NC(=O)/C=C/C(=O)Nc1ccc2c(c1)C(=O)NC1(CCSC1)N2 (stereo not given),16 µg/mL

# Tested on: Cryptococcus neoformans
# Assay: Antifungal activity against Fluconazole-resistant Cryptococcus neoformans ATCC 32719R assessed as fungal growth inhibition
# Type: functional
# Settings: not given
row,Structure (SMILES),MIC
1,Cc1ccc([N+](=O)[O-])cc1NC(=O)/C=C/C(=O)Nc1ccc2c(c1)C(=O)NC1(CCSC1)N2 (stereo not given),32 µg/mL

# Tested on: Candida albicans
# Assay: Antifungal activity against Candida albicans ATCC 76615 assessed as inhibition of cell wall synthesis incubated for 24 hrs in absence of sorbitol
# Type: functional
# Settings: not given
row,Structure (SMILES),MIC
1,Cc1ccc([N+](=O)[O-])cc1NC(=O)/C=C/C(=O)Nc1ccc2c(c1)C(=O)NC1(CCSC1)N2 (stereo not given),8 µg/mL

# Tested on: Candida albicans
# Assay: Antifungal activity against Candida albicans ATCC 76615 assessed as inhibition of cell wall synthesis incubated for 24 hrs in presence of sorbitol
# Type: functional
# Settings: not given
row,Structure (SMILES),MIC
1,Cc1ccc([N+](=O)[O-])cc1NC(=O)/C=C/C(=O)Nc1ccc2c(c1)C(=O)NC1(CCSC1)N2 (stereo not given),128 µg/mL

# Tested on: Cryptococcus neoformans
# Assay: Antifungal activity against Cryptococcus neoformans ATCC 32719 assessed as inhibition of cell wall synthesis incubated for 24 hrs in presence of sorbitol
# Type: functional
# Settings: not given
row,Structure (SMILES),MIC
1,Cc1ccc([N+](=O)[O-])cc1NC(=O)/C=C/C(=O)Nc1ccc2c(c1)C(=O)NC1(CCSC1)N2 (stereo not given),128 µg/mL

# Tested on: Cryptococcus neoformans
# Assay: Antifungal activity against Cryptococcus neoformans ATCC 32719 assessed as inhibition of cell wall synthesis incubated for 24 hrs in absence of sorbitol
# Type: functional
# Settings: not given
row,Structure (SMILES),MIC
1,Cc1ccc([N+](=O)[O-])cc1NC(=O)/C=C/C(=O)Nc1ccc2c(c1)C(=O)NC1(CCSC1)N2 (stereo not given),16 µg/mL

# Tested on: Aspergillus fumigatus
# Assay: Synergistic antifungal activity against Aspergillus fumigatus GIMCC 3.19 assessed as polyoxin B MIC incubated for 24 hrs by checkerboard broth microdilution method
# Type: functional
# Settings: not given
row,Structure (SMILES),MIC
1,Cc1ccc([N+](=O)[O-])cc1NC(=O)/C=C/C(=O)Nc1ccc2c(c1)C(=O)NC1(CCSC1)N2 (stereo not given),2 µg/mL

# Tested on: Candida albicans
# Assay: Antifungal activity against Micafungin-resistant Candida albicans ATCC 76615R assessed as fungal growth inhibition
# Type: functional
# Settings: not given
row,Structure (SMILES),MIC
1,Cc1ccc([N+](=O)[O-])cc1NC(=O)/C=C/C(=O)Nc1ccc2c(c1)C(=O)NC1(CCSC1)N2 (stereo not given),16 µg/mL

# Tested on: Aspergillus fumigatus
# Assay: Additive antifungal activity against Aspergillus fumigatus GIMCC 3.19 assessed as fractional inhibitory concentration index incubated for 24 hrs in presence of fluconazole by checkerboard broth microdilution method
# Type: functional
# Settings: not given
row,Structure (SMILES),fractional inhibitory concentration index (FICI)
1,Cc1ccc([N+](=O)[O-])cc1NC(=O)/C=C/C(=O)Nc1ccc2c(c1)C(=O)NC1(CCSC1)N2 (stereo not given),1.125
